Results reported in patent US10022451B2, “Encapsulated agents and methods of making and using thereof” (University of Georgia Research Foundation, Inc., priority 2014, dated 2018).

Assays:
[1] = in tetrahydrofuran; cited from earlier work
[2] = Stability of P-RFRTs in PBS and at pH 2; type: physicochemical; settings: same concentration

zinc hexadecafluoro-phthalocyanine [ZnF16Pc]
ΦΔ [1]: 0.85 | Stability in PBS [2]: quickly precipitated out due to its poor solubility
